Experimental data taken from patent US20210183467A1, “SYSTEM AND METHOD FOR USING MICROBIOME TO DE-RISK DRUG DEVELOPMENT” (YALE UNIVERSITY, priority 2018, published 2021).

Key:
[1] = Physiologically based multi-compartment pharmacokinetic model; design: species or system mouse; settings: GN^WT mice, oral BRV
Excerpt: These quantitative measurements of drug and metabolite levels, collected over time, were used in various compartments, and in the presence and absence of microbial drug metabolism, to build the predictor module 130 which implements a physiologically based pharmacokinetic model to predict the levels and source of systemic drug and metabolite exposure over time, and quantify the contribution of host and microbiota to systemic drug and metabolite exposure. First, to parameterize processes independent from microbial BRV metabolism (grey compartments in FIG. 19A), a global optimization procedure was used to fit measured BRV and BVU kinetics in serum and intestinal compartments of GN^MUT mice. […]
Measured BRV and BVU kinetics in serum and intestinal compartments of GN^MUT mice were used to parameterize processes independent from bacterial BRV conversion (grey compartments as illustrated in FIG. 19A) using the global optimization procedure to best fit the measured data. […]
To parameterize processes dependent on microbial BRV metabolism (green compartments in FIG. 19A), including bacterial BRV to BVU conversion (kc^B) and BVU absorption rates from cecum and colon (KaLI1^M and kaLI2^M), measured BRV and BVU kinetics in cecum and colon (but not serum) of GN^WT mice, as illustrated in FIGS. 19C and 20A, are used. […]

[2] = type: in vivo, C57BL/6J mice
Method: Germfree mice were colonized with the wildtype and mutant strains. BRV was administered.
Individually caged GF C57BL/6J mice are colonized by oral gavage with 200 μL of an overnight GMM culture of either B. thetaiotaomicron wild type or bt4554 strains to generate GN^WT or GN^MUT mice, respectively. After 4 days, bacterial loads are determined by CFU plating on BHI blood agar prior to drug treatment.
(§1) Each drug treatment is performed using 20 treated and 5 to 6 untreated animals. Both genders are equally represented in each group and evenly distributed across the different time points for sample collection. Animals (n=5 per time point and group) are given 100 mg/kg body weight of BRV or SRV as suspensions in PBS (200 μL PBS for controls) by oral gavage. One blood sample is collected from each animal at an early time point (0.5, 1, 1.5, or 2 hours after drug administration) by submandibular bleeding. At 3, 5, 7, and 9 h, mice are sacrificed and tissue samples are collected into sample tubes and snap-frozen. Fecal samples are collected before euthanization and re-suspended in PBS (1 mL) through vigorous shaking. 20 μL are then plated on BHI blood plates and incubated aerobically and anaerobically at 37° C. to check GF, GN^WT, and GN^MUT animals for contamination. Monocolonized mice are also checked for contamination by PCR using primers 7 and 8.

[3] = Oral BRV in conventional (CV) and germfree (GF) mice, drug and metabolite levels; type: in vivo, C57BL/6 mice
Method: Oral BRV was administered to conventional (CV) and germfree (GF) C57BL/6 mice, and BRV and BVU concentrations were measured over time along the length of the gastrointestinal tract as shown in FIG. 4C. Serum kinetics of BRV and BVU in conventional (CV) and germ-free (GF) mice were compared following oral BRV administration.
All experiments using mice are performed using protocols approved by the Yale University Institutional Animal Care and Use Committee. Germfree (GF) 8 to 12 week old C57BL/6J mice are maintained in flexible plastic gnotobiotic isolators with a 12-hour light/dark cycle and GF status monitored by PCR and culture-based methods. Conventional C57BL/6J mice (Jackson Laboratories) are purchased at the age of 6-7 weeks and kept in the lab for 2-3 weeks before experiments. All mice are provided a standard, autoclaved mouse chow (5013 LabDiet, Purina) ad libitum.
as §1
200 μL of 0.1 mm zirconia/silica beads (BioSpec Products) and 500 μL of organic solvent (acetonitrile:methanol, 1:1) supplemented with internal standard are added to 50-350 mg of pre-weighed solid material. Material is homogenized by mechanical disruption with a bead beater (BioSpec Products) set for 2 minutes on high setting at room temperature. After incubation for at least 1 h at −20° C., samples are centrifuged (3220 rcf, −9° C.) for 15 min. 10 μL of supernatant are diluted with 10 μL H2O for analysis by LC-MS.
Samples for LS-MS analysis are prepared as described above. Chromatographic separation is performed on a C18 Kinetex Evo column (Phenomenex, 100 mm×2.1 mm, […]) using mobile phase A: H2O, 0.1% formic acid and B: methanol, 0.1% formic acid at 45° C. 5 μL of sample are injected at 100% A and 0.4 mL/min flow followed by a linear gradient to 95% B over 5.5 min and 0.4 mL/min flow leading to thymine, BVU, SRV, and BRV elution at 0.95, 2.0, 2.15, and 2.4 min, respectively. The internal standards caffeine and sulfamethoxazole elute at 1.9 and 2.1 min, respectively. The qTOF is operated in positive scanning mode (50-1000 m/z) and the following source parameters: VCap is 3500 V; nozzle voltage is 2000 V; gas temp is 225 C; drying gas 13 L/min; nebulizer is 20 psig; sheath gas temp is 225 C; and sheath gas flow is 12 L/min. Online mass calibration is performed using a second ionization source and a constant flow (5 μL/min) of reference solution (121.0509 and 922.0098 m/z). Compounds are identified based on the retention time of chemical standards and their accurate mass (tolerance 20 ppm).

O=c1[nH]cc(/C=C/Br)c(=O)[nH]1 [BVU, bromovinyluracil]
microbial share of total BVU exposure in serum (area under the curve) [1]: 77% | serum BVU levels ([2]; GN^WT compared to GN^MUT mice): significantly higher | absorption of BVU from cecum and colon ([2]; GN^WT mice): almost entirely absorbed | BVU levels in the liver ([2]; GN^WT mice after BRV administration): increased BVU levels | BVU concentrations in the liver ([3]; CV compared to GF mice, oral BRV): increased | BVU intestinal concentrations ([3]; CV mice compared to GF controls, oral BRV): increased intestinal concentrations | concentrations of BVU in serum ([3]; CV versus GF mice, later timepoints after oral BRV): significantly higher
